According to the kinase profiling compilation of Christmann-Franck et al. (2016):
“And” between values parts separate entries of the source, which are not always exact repeats. Identical values can stand only once.

Assays:
Experiment in all cases: radiometric filter-binding kinase assay, Kinase HotSpot
Conditions in all cases: compound 0.5 µM; ATP 10 µM
[1] = molecular target: ACVRL1 (human) (UniProt P37023)
[2] = molecular target: AKT1 (human) (UniProt P31749)
[3] = molecular target: ALK (human) (UniProt Q9UM73)
[4] = molecular target: BLK (human) (UniProt P51451)
[5] = molecular target: BRSK1 (human) (UniProt Q8TDC3)
BRSK1 (human), sequence (Q8TDC3 whole entry, looked up): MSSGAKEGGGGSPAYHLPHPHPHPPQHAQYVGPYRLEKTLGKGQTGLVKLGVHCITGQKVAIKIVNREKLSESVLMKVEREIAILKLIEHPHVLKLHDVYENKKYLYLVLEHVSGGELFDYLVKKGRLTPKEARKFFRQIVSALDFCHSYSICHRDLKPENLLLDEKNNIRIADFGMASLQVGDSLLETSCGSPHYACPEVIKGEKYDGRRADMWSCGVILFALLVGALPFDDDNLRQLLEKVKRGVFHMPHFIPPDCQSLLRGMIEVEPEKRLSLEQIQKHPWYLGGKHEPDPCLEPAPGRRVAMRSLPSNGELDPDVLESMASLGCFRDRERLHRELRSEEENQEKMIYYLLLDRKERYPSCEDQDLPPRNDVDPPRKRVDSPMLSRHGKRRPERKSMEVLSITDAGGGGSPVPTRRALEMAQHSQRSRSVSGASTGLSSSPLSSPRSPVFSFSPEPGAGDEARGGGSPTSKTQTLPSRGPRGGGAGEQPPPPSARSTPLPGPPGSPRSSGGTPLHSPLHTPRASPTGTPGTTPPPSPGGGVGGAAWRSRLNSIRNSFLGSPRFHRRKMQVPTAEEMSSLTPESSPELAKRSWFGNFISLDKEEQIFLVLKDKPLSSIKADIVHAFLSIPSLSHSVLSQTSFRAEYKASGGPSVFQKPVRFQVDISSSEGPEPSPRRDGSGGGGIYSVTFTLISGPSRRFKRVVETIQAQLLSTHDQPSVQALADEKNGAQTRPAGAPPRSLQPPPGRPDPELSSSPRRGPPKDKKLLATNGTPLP

[6] = molecular target: BRSK2 (human) (UniProt Q8IWQ3)
[7] = molecular target: CDC42BPA (human) (UniProt Q5VT25)
[8] = molecular target: CDK3 CCNE1 (human) (UniProt Q00526+P24864)
[9] = molecular target: CDK6 CCND3 (human) (UniProt P30281+Q00534)
[10] = molecular target: CSNK1A1 (human) (UniProt P48729)
[11] = molecular target: DDR2 (human) (UniProt Q16832)
[12] = molecular target: DYRK1A (human) (UniProt Q13627)
[13] = molecular target: EPHA1 (human) (UniProt P21709)
EPHA1 (human), sequence (P21709 whole entry, looked up): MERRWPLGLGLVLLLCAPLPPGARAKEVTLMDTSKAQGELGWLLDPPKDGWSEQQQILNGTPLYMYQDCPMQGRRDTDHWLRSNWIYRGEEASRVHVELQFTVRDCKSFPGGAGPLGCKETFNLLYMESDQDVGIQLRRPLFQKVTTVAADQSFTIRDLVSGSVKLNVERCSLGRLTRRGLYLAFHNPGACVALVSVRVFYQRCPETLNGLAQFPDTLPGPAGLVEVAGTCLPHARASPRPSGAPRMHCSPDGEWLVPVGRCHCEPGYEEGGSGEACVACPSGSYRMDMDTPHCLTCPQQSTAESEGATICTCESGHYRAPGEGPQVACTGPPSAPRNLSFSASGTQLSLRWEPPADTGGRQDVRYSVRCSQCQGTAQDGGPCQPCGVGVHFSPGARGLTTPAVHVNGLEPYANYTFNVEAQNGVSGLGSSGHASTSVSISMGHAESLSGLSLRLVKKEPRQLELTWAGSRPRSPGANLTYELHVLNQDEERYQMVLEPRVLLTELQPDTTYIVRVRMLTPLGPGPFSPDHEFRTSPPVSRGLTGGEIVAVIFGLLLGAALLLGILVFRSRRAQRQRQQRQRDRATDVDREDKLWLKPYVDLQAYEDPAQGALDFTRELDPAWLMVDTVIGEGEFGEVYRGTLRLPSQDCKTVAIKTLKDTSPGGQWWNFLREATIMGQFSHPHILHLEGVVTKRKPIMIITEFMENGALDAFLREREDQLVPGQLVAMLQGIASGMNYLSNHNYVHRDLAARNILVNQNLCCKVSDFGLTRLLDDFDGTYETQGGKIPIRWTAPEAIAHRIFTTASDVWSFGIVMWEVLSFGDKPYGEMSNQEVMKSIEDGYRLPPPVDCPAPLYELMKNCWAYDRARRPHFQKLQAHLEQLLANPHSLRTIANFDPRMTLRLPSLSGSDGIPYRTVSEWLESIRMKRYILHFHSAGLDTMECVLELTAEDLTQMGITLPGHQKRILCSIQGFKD

[14] = molecular target: EPHB2 (human) (UniProt P29323)
[15] = molecular target: EPHB3 (human) (UniProt P54753)
[16] = molecular target: FGFR4 (human) (UniProt P22455)
[17] = molecular target: FYN (human) (UniProt P06241)
[18] = molecular target: GSK3B (human) (UniProt P49841)
[19] = molecular target: IRAK1 (human) (UniProt P51617)
[20] = molecular target: LRRK2 (human) (UniProt Q5S007)
[21] = molecular target: LTK (human) (UniProt P29376)
[22] = molecular target: LYN (human) (UniProt P07948)
LYN (human), sequence (P07948 whole entry, looked up): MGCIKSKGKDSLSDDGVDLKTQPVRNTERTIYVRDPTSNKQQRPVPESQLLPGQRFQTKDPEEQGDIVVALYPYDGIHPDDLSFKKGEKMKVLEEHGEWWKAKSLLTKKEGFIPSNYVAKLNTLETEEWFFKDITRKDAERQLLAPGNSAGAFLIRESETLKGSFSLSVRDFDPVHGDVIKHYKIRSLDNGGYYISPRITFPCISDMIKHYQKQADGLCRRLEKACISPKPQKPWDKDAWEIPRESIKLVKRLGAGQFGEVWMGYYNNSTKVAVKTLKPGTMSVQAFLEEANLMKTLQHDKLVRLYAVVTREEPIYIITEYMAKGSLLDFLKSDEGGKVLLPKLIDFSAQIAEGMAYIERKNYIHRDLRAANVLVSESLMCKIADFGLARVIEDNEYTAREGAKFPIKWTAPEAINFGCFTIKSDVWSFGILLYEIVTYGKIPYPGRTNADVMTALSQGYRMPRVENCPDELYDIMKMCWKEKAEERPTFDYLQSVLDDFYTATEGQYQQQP

[23] = molecular target: MAP2K2 (human) (UniProt P36507)
[24] = molecular target: MAP3K10 (human) (UniProt Q02779)
[25] = molecular target: MAP3K11 (human) (UniProt Q16584)
MAP3K11 (human), sequence (Q16584 whole entry, looked up): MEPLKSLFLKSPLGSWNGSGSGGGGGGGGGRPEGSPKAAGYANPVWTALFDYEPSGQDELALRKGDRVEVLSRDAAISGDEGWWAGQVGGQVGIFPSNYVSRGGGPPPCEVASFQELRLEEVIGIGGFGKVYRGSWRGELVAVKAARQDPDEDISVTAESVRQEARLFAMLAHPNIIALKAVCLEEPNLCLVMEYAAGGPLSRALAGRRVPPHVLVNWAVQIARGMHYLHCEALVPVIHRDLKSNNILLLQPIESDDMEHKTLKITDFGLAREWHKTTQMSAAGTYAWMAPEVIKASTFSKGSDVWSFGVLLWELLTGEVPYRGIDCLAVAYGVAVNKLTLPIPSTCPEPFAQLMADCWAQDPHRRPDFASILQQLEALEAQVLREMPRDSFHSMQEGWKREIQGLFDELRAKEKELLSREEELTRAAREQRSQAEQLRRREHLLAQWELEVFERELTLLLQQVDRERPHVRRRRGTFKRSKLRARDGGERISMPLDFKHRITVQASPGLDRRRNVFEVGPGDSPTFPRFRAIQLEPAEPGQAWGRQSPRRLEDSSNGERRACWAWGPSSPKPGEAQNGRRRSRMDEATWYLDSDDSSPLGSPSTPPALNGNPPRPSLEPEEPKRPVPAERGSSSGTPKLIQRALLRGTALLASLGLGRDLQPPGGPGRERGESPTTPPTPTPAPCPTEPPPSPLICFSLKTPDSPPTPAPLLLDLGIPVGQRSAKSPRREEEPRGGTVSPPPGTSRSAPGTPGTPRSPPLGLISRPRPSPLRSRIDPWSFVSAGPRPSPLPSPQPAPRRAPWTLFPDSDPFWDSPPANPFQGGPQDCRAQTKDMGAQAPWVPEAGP

[26] = molecular target: MAP4K4 (human) (UniProt O95819)
[27] = molecular target: MAPK14 (human) (UniProt Q16539)
[28] = molecular target: MAPKAPK5 (human) (UniProt Q8IW41)
[29] = molecular target: MARK4 (human) (UniProt Q96L34)
[30] = molecular target: NEK1 (human) (UniProt Q96PY6)
[31] = molecular target: NTRK1 (human) (UniProt P04629)
[32] = molecular target: PASK (human) (UniProt Q96RG2)
[33] = molecular target: PDGFRA (human) (UniProt P16234)
[34] = molecular target: PDPK1 (human) (UniProt O15530)
[35] = molecular target: PIM1 (human) (UniProt P11309)
PIM1 (human), sequence (P11309 whole entry, looked up): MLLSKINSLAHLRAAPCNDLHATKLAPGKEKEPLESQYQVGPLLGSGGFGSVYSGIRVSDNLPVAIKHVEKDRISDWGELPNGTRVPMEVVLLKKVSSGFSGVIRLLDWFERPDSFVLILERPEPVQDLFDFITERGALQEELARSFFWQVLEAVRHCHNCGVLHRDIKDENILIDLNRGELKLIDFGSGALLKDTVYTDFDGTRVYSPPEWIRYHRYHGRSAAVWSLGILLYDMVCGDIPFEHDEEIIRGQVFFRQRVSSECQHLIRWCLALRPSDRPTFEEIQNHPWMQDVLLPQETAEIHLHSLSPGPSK

[36] = molecular target: PKN1 (human) (UniProt Q16512)
[37] = molecular target: PRKD3 (human) (UniProt O94806)
PRKD3 (human), sequence (O94806 whole entry, looked up): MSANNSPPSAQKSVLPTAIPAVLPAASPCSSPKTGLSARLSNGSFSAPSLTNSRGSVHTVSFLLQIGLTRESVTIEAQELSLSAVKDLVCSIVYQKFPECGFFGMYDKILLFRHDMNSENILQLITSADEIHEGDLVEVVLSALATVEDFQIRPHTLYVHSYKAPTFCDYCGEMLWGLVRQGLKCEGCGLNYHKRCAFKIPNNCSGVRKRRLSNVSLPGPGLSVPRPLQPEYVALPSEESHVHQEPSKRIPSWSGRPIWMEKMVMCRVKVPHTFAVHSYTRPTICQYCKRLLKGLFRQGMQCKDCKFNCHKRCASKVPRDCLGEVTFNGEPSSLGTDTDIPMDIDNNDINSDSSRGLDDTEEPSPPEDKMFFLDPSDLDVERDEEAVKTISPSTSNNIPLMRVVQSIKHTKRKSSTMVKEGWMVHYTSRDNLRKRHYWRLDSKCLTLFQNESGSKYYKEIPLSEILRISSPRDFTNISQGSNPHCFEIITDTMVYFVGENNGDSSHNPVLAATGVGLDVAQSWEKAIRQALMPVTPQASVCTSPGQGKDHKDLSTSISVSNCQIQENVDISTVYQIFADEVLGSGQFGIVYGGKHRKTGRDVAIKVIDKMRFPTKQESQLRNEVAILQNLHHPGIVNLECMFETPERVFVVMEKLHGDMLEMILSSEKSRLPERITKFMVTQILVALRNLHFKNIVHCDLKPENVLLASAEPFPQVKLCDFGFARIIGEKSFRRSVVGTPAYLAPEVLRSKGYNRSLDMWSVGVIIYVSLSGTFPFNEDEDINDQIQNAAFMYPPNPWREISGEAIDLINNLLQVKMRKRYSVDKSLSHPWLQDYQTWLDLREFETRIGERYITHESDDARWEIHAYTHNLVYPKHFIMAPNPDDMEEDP

[38] = molecular target: PRKG2 (human) (UniProt Q13237)
PRKG2 (human), sequence (Q13237 whole entry, looked up): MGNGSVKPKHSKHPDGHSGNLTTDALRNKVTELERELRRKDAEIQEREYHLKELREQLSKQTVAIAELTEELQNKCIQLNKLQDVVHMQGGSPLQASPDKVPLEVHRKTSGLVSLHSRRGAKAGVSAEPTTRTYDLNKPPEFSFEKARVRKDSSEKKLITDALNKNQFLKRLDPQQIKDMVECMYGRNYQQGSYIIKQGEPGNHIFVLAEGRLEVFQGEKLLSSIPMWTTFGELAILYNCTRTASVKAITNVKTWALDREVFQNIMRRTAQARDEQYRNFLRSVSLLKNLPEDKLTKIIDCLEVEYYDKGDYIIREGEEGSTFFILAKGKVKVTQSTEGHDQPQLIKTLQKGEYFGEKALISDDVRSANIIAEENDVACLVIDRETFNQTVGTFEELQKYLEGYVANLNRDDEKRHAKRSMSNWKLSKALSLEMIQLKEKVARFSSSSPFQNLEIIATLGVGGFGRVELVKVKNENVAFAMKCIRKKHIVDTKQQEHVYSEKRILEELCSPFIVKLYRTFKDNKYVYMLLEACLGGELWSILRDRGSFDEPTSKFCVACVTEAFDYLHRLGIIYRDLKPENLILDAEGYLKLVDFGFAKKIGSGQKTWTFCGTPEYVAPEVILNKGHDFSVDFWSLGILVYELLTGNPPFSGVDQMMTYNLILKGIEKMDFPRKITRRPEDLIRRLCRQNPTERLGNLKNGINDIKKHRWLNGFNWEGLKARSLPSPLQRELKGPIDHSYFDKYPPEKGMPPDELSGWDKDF

[39] = molecular target: RPS6KA5 KD2 (human) (UniProt O75582)
[40] = molecular target: RPS6KB1 (human) (UniProt P23443)
[41] = molecular target: STK3 (human) (UniProt Q13188)
[42] = molecular target: WNK3 (human) (UniProt Q9BYP7)

For `COc1ccc(OC)c2c(=S)c3ccccc3[nH]c12`, the residual activity [1] was 99%, the residual activity [2] was 89.7% and the residual activity [3] was 105%. The residual activity [4] was 96.5%, the residual activity [5] was 93.7% and the residual activity [6] was 92.5%. The residual activity [7] was 82.7%, the residual activity [8] was 87.7% and the residual activity [9] was 102%. The residual activity [10] was 102%, the residual activity [11] was 97.1% and the residual activity [12] was 103%. The residual activity [13] was 89%, the residual activity [14] was 94.9% and the residual activity [15] was 91%. The residual activity [16] was 91.1%, the residual activity [17] was 101% and the residual activity [18] was 61.3%. The residual activity [19] was 91.1%, the residual activity [20] was 98% and the residual activity [21] was 84.5%. For the same compound, the residual activity [22] was 106% and 96.9%, the residual activity [23] was 100% and the residual activity [24] was 92.8%. It also gave a residual activity [25] of 107%, a residual activity [26] of 101% and a residual activity [27] of 104%. For the same compound, the residual activity [28] was 109%, the residual activity [29] was 95.7% and the residual activity [30] was 102%. The residual activity [31] was 87.5%, the residual activity [32] was 90.1% and the residual activity [33] was 85.6%. The residual activity [34] was 94.9%, the residual activity [35] was 93% and the residual activity [36] was 109%. For the same compound, the residual activity [37] was 94.1%, the residual activity [38] was 62.2% and the residual activity [39] was 86%. The residual activity [40] was 99.4%, the residual activity [41] was 104% and the residual activity [42] was 99.1%.
In the case of `CN([C@@H](Cc1ccc(OS(=O)(=O)c2cccc3cnccc23)cc1)C(=O)N1CCN(c2ccccc2)CC1)S(=O)(=O)c1cccc2cnccc12`, the residual activity [1] is reported as 103%, the residual activity [2] is reported as 102% and the residual activity [3] is reported as 96.5%. It also gave a residual activity [4] of 102%, a residual activity [5] of 96.4% and a residual activity [6] of 100%. It also gave a residual activity [7] of 98.9%, a residual activity [8] of 101% and a residual activity [9] of 105%. For the same compound, the residual activity [10] was 99%, the residual activity [11] was 96.9% and the residual activity [12] was 102%. For the same compound, the residual activity [13] was 102%, the residual activity [14] was 103% and the residual activity [15] was 97%. The residual activity [16] was 110%, the residual activity [17] was 101% and the residual activity [18] was 96.6%. The residual activity [19] was 95.4%, the residual activity [20] was 97.1% and the residual activity [21] was 102%. For the same compound, the residual activity [22] was 101% and 92.1%, the residual activity [23] was 119% and the residual activity [24] was 92.6%. For the same compound, the residual activity [25] was 105%, the residual activity [26] was 94.8% and the residual activity [27] was 91%. For the same compound, the residual activity [28] was 97%, the residual activity [29] was 98.8% and the residual activity [30] was 102%. It also gave a residual activity [31] of 111%, a residual activity [32] of 103% and a residual activity [33] of 99.6%. For the same compound, the residual activity [34] was 96.4%, the residual activity [35] was 106% and the residual activity [36] was 105%. For the same compound, the residual activity [37] was 99.2%, the residual activity [38] was 99.5% and the residual activity [39] was 100%. The residual activity [40] was 101%, the residual activity [41] was 98.8% and the residual activity [42] was 101%.
